Here are results for 29 compounds from US20250376445A1, “COMPOUNDS AND METHODS FOR YAP/TEAD MODULATION AND INDICATIONS THEREFOR” (OPNA BIO SA, priority 2023, published 2025).

What is called IC50 is the concentration at which inhibition is half-maximal.

The test deals with TEAD-dependent transcription. As to the kind of experiment: TEAD-dependent transcription cell-based reporter assay (MSTO-211H+12XGTIIC luciferase). Set-up: species or system human. To be noted: Homo sapiens; MSTO-211H+12XGTIIC reporter cells, 24 hours compound incubation, luminescence normalized to viability; read-out: MSTO-211H GMean IC50 (uM) Cell Assay Reporter Cell Variant: TEAD. The source says:
The human mesothelioma cell line MSTO-211H was stably transfected with a pGL4.21 plasmid containing a synthetic promoter with 12 copies of the GTIIC TEAD response element that drives the expression of a luciferase reporter gene^1 using Lipofectamine transfection reagent (Thermo Fisher). Transfected cells were selected using puromycin and single cell clones expressing this construct (referred to as MSTO-211H+12XGTIIC) were generated by limiting dilution. MSTO-211H cells was characterized by genetic alterations in key components of the Hippo pathway^2, resulting in up-regulation of YAP/TEAD-mediated transcription. […] To evaluate TEAD inhibitors, the MSTO-211H+12XGTIIC cell line was seeded in a 96-well plate in 50 μL of culture media at 1×10^4 cells per well and incubated at 37° C. overnight. Serial dilutions of compounds (in total volume of 50 μL of culture media) were added to the cells and incubated at 37° C. for 24 hours. Each plate included cells treated with DMSO as high controls and cells treated with 20 μM of the reference compound K-975 (a known TEAD inhibitor)^3 as low controls. Cell viability was assayed by the addition of 25 μL of CellTiter-Fluor reagent (Promega) followed by a 30-minute incubation at 37° C. and quantification of the fluorescence signal (Ex400/Em505). Subsequently, luciferase expression was assayed by the addition of 25 μL of ONE-Glo reagent (Promega) followed by a 10-minute incubation at room temperature and quantification of the luminescence signal. The luminescence signal was normalized to the fluorescence signal to correct for any loss in cell viability over the 24-hour compound incubation period. The percentage of inhibition of normalized luminescence signal, indicative of compound-mediated inhibition of TEAD-dependent transcription, at individual compound concentrations relative to high and low controls was calculated. The data were analyzed by using nonlinear regression to generate IC50 values for individual compounds.
(In general: A reporter such as luciferase makes a cellular process visible.)
Regarding `O=C(c1c[nH]c(C(F)(F)F)n1)N1CCc2c(cccc2-c2ccc(C(F)(F)F)cc2)C1` [O-0192, (2-(trifluoromethyl)-1H-imidazol-4-yl)(5-(4-(trifluoromethyl)phenyl)-3,4-dihydroisoquinolin-2(1H)-yl)methanone], the IC50 is more than 100 µM.

For `C[C@@H](Nc1ccccn1)C(=O)N1CCc2cc(-c3ccc(C(F)(F)F)cc3)ccc2C1` [O-0145, (R)-2-(pyridin-2-ylamino)-1-(6-(4-(trifluoromethyl)phenyl)-3,4-dihydroisoquinolin-2(1H)-yl)propan-1-one], the IC50 was 0.001 to 10 µM.

Consider `CS(=O)(=O)c1nc(C(=O)N2CCc3ccc(C(F)(F)c4ccc(C(F)(F)F)nc4)cc3C2)c[nH]1` [O-0061, (7-(difluoro(6-(trifluoromethyl)pyridin-3-yl)methyl)-3,4-dihydroisoquinolin-2(1H)-yl)(2-(methylsulfonyl)-1H-imidazol-4-yl)methanone], for which the IC50 is 0.001 to 10 µM.

As to `O=C(c1ccc(C(F)(F)F)cc1)c1cccc2c1CCN(C(=O)c1c[nH]c(C(F)(F)F)n1)C2` [O-0037, (2-(trifluoromethyl)-1H-imidazol-4-yl)(5-(4-(trifluoromethyl)benzoyl)-3,4-dihydroisoquinolin-2(1H)-yl)methanone], the IC50 fell in the range of 0.001 to 10 µM.

`O=C(c1cccc2sc(C(F)(F)F)nc12)N1CCc2c(cccc2C(F)c2ccc(C(F)(F)F)cc2)C1` (centres unmarked) [O-0070, (5-(fluoro(4-(trifluoromethyl)phenyl)methyl)-3,4-dihydroisoquinolin-2(1H)-yl)(2-(trifluoromethyl)benzo[d]thiazol-4-yl)methanone]: the IC50 lay within 0.001 to 10 µM.

Take `CS(=O)(=O)c1nc(C(=O)N2CCc3c(cccc3C(=O)c3ccc(C(F)(F)F)cc3)C2)c[nH]1` [O-0038, (2-(methylsulfonyl)-1H-imidazol-4-yl)(5-(4-(trifluoromethyl)benzoyl)-3,4-dihydroisoquinolin-2(1H)-yl)methanone]: the IC50 fell in the range of 0.001 to 10 µM.

For `CS(=O)(=O)c1nc(C(=O)N2CCc3cc(-c4ccc(C(F)(F)F)cc4)ccc3C2)c[nH]1` [O-0190, (2-(methylsulfonyl)-1H-imidazol-4-yl)(6-(4-(trifluoromethyl)phenyl)-3,4-dihydroisoquinolin-2(1H)-yl)methanone], the 50% inhibitory concentration (IC50) was 0.001 to 10 µM.

As for `CS(=O)(=O)c1nc(C(=O)N2CCc3c(cccc3-c3ccc(C(F)(F)F)cc3)C2)c[nH]1` [O-0193, (2-(methylsulfonyl)-1H-imidazol-4-yl)(5-(4-(trifluoromethyl)phenyl)-3,4-dihydroisoquinolin-2(1H)-yl)methanone], the IC50 fell in the range of 10 to 100 µM.

In the case of `O=C(c1c[nH]c(C(F)(F)F)n1)N1CCc2cc(-c3ccc(C(F)(F)F)cc3)ccc2C1` [O-0191, (2-(trifluoromethyl)-1H-imidazol-4-yl)(6-(4-(trifluoromethyl)phenyl)-3,4-dihydroisoquinolin-2(1H)-yl)methanone], the IC50 lay in the range of 0.001 to 10 µM.

`O=C(Cc1cscn1)N1CCc2c(Cc3ccc(C(F)(F)F)cc3)cccc2C1` [O-0079, 2-(thiazol-4-yl)-1-(5-(4-(trifluoromethyl)benzyl)-3,4-dihydroisoquinolin-2(1H)-yl)ethan-1-one]: the IC50 lay in the range of 0.001 to 10 µM.

On to `CS(=O)(=O)c1nc(C(=O)N2CCc3c(cccc3C(F)c3ccc(C(F)(F)F)cc3)C2)c[nH]1` (centres unmarked) [O-0054, (5-(fluoro(4-(trifluoromethyl)phenyl)methyl)-3,4-dihydroisoquinolin-2(1H)-yl)(2-(methylsulfonyl)-1H-imidazol-4-yl)methanone], for which the IC50 fell in the range of 0.001 to 10 µM.

For `O=C(CCc1cnc[nH]1)N1CCc2ccc(C(F)(F)c3ccc(C(F)(F)F)nc3)cc2C1` [O-0059, 1-(7-(difluoro(6-(trifluoromethyl)pyridin-3-yl)methyl)-3,4-dihydroisoquinolin-2(1H)-yl)-3-(1H-imidazol-5-yl)propan-1-one], the IC50 was in the range of 0.001 to 10 µM.

With `C[C@@H](N)C(=O)N1CCc2ccc(-c3ccc(C(F)(F)F)cc3)cc2C1` [O-0187, (R)-2-amino-1-(7-(4-(trifluoromethyl)phenyl)-3,4-dihydroisoquinolin-2(1H)-yl)propan-1-one], the IC50 lay within 0.001 to 10 µM.

For `O=C(CCS(=O)(=O)C(F)(F)F)N1CCc2c(cccc2C(F)c2ccc(C(F)(F)F)cc2)C1` (centres unmarked) [O-0002, 1-(5-(fluoro(4-(trifluoromethyl)phenyl)methyl)-3,4-dihydroisoquinolin-2(1H)-yl)-3-((trifluoromethyl)sulfonyl)propan-1-one], the IC50 fell in the range of 0.001 to 10 µM.

As for `O=C(c1ccc(C(F)(F)F)cc1)c1cccc2c1CCN(C(=O)CCS(=O)(=O)C(F)(F)F)C2` [O-0005, 1-(5-(4-(trifluoromethyl)benzoyl)-3,4-dihydroisoquinolin-2(1H)-yl)-3-((trifluoromethyl)sulfonyl)propan-1-one], the IC50 was 0.001 to 10 µM.

With `C=CS(=O)(=O)N1CCc2c(cccc2-c2ccc(C(F)(F)F)cc2)C1` [O-0117, 5-(4-(trifluoromethyl)phenyl)-2-(vinylsulfonyl)-1,2,3,4-tetrahydroisoquinoline], the IC50 lay in the range of 0.001 to 10 µM.

`C[C@@H](NC(=O)c1cccc(N)n1)C(=O)N1CCc2ccc(-c3ccc(C(F)(F)F)cc3)cc2C1` [O-0133, (R)-6-amino-N-(1-oxo-(7-(4-(trifluoromethyl)phenyl)-3,4-dihydroisoquinolin-2(1H)-yl)propan-2-yl)picolinamide]: the IC50 was in the range of 0.001 to 10 µM.

Take `CC(C)C[C@@H](NS(C)(=O)=O)C(=O)N1CCc2c(cccc2-c2ccc(C(F)(F)F)cc2)C1` [O-0139, (R)-N-(4-methyl-1-oxo-1-(5-(4-(trifluoromethyl)phenyl)-3,4-dihydroisoquinolin-2(1H)-yl)pentan-2-yl)methanesulfonamide]: the IC50 was in the range of 0.001 to 10 µM.

For `C=CS(=O)(=O)N1CCc2cc(-c3ccc(C(F)(F)F)cc3)ccc2C1` [O-0111, 6-(4-(trifluoromethyl)phenyl)-2-(vinylsulfonyl)-1,2,3,4-tetrahydroisoquinoline], the IC50 lay in the range of 0.001 to 10 µM.

As for `CS(=O)(=O)c1nccc(C(=O)N2CCc3ccc(C(=O)c4ccc(C(F)(F)F)cc4)cc3C2)n1` [O-0058, (2-(methylsulfonyl)pyrimidin-4-yl)(7-(4-(trifluoromethyl)benzoyl)-3,4-dihydroisoquinolin-2(1H)-yl)methanone], the IC50 was 0.001 to 10 µM.

`CCOC(c1ccc(C(F)(F)F)cc1)c1cccc2c1CCN(C(=O)CCS(C)(=O)=O)C2` (centres unmarked) [O-0057, 1-(5-(ethoxy(4-(trifluoromethyl)phenyl)methyl)-3,4-dihydroisoquinolin-2(1H)-yl)-3-(methylsulfonyl)propan-1-one]: the IC50 lay in the range of 0.001 to 10 µM.

As to `O=C(c1ccc(C(F)(F)F)cc1)c1cccc2c1CCN(C(=O)CCc1cnc[nH]1)C2` [O-0048, 3-(1H-imidazol-5-yl)-1-(5-(4-(trifluoromethyl)benzoyl)-3,4-dihydroisoquinolin-2(1H)-yl)propan-1-one], the IC50 was 0.001 to 10 µM.

For the compound `O=C(Cc1c[nH]cn1)N1CCc2c(cccc2C(F)c2ccc(C(F)(F)F)cc2)C1` (centres unmarked) [O-0068, 1-(5-(fluoro(4-(trifluoromethyl)phenyl)methyl)-3,4-dihydroisoquinolin-2(1H)-yl)-2-(1H-imidazol-4-yl)ethan-1-one], the IC50 is 0.001 to 10 µM.

For the compound `O=C(CCS(=O)(=O)C(F)(F)F)N1CCc2c(cccc2C(F)c2ccc(C(F)(F)F)nc2)C1` (centres unmarked) [O-0008, 1-(5-(fluoro(6-(trifluoromethyl)pyridin-3-yl)methyl)-3,4-dihydroisoquinolin-2(1H)-yl)-3-((trifluoromethyl)sulfonyl)propan-1-one], the IC50 fell in the range of 0.001 to 10 µM.

Consider `O=C(c1ccc(C(F)(F)F)cc1)c1ccc2c(c1)CN(C(=O)CCS(=O)(=O)C(F)(F)F)CC2` [O-0065, 1-(7-(4-(trifluoromethyl)benzoyl)-3,4-dihydroisoquinolin-2(1H)-yl)-3-((trifluoromethyl)sulfonyl)propan-1-one], for which the IC50 lay within 0.001 to 10 µM.

For the compound `O=C(c1ccc(C(F)(F)F)cc1)c1cccc2c1CCN(C(=O)Cc1ncc[nH]1)C2` [O-0071, 2-(1H-imidazol-2-yl)-1-(5-(4-(trifluoromethyl)benzoyl)-3,4-dihydroisoquinolin-2(1H)-yl)ethan-1-one], the IC50 lay within 0.001 to 10 µM.

In the case of `O=C(c1ccc(C(F)(F)F)cc1)c1cccc2c1CCN(C(=O)Cc1cocn1)C2` [O-0067, 2-(oxazol-4-yl)-1-(5-(4-(trifluoromethyl)benzoyl)-3,4-dihydroisoquinolin-2(1H)-yl)ethan-1-one], the IC50 lay within 0.001 to 10 µM.

For `C[C@@H](Nc1ccccn1)C(=O)N1CCc2c(cccc2-c2ccc(C(F)(F)F)cc2)C1` [O-0131, (R)-2-(pyridin-2-ylamino)-1-(5-(4-(trifluoromethyl)phenyl)-3,4-dihydroisoquinolin-2(1H)-yl)propan-1-one], the IC50 fell in the range of 0.001 to 10 µM.

`COC(c1ccc(C(F)(F)F)cc1)c1cccc2c1CCN(C(=O)CCS(C)(=O)=O)C2` (centres unmarked) [O-0078, 1-(5-(methoxy(4-(trifluoromethyl)phenyl)methyl)-3,4-dihydroisoquinolin-2(1H)-yl)-3-(methylsulfonyl)propan-1-one]: the IC50 lay within 0.001 to 10 µM.
